# Source: US10123861B2, “Bag for packaging diluted animal semen suitable for artificial insemination, in particular of porcine species; and system comprising same” (IMV TECHNOLOGIES, priority 2014, dated 2018)
# Test: Amount of triclosan released from the bag into the dilution extender (LC-MS-MS)
# Type: physicochemical
# Conditions: bag of Example 3; for Amount of triclosan released into the dose / Proportion of triclosan released into the dose: five days, 17° C.; for Amount of triclosan released into the dose: full dose 70 ml; for Proportion of triclosan released into the dose: relative to approximately 532 μg in parts facing the pouch
# Source text: A description will now be given of the trials with the bag of Example 3 to determine the amount of triclosan released into the dose of diluted semen such as 27 contained in the pouch such as 14 of that bag.
# To simplify the trials, it was not a dose of diluted semen which was preserved in the bag but only dilution extender.
# In this case, the dilution extender 53 (hereinafter “extender A”) and a conventional dilution extender containing an antibiotic (hereinafter “extender B”) were used.
# One bag of Example 3 is filled with a dose of extender A and one bag of Example 3 with a dose of extender B.
# Next the bags are left to rest for five days in the usual preservation conditions, that is to say 17° C. in horizontal position.
# Next, the extender contained in each bag is analyzed, in order to determine the concentration of triclosan.
# This analysis is made by liquid chromatography tandem mass spectrometry (LC-MS-MS method).
# Based on the concentrations obtained, the amount of triclosan released is determined in a full dose provided to be contained in the bag, that is to say 70 ml.
# It will be noted that the weight of triclosan taken into account in the sheets such as 11 and 12 of the bag of Example 3 for calculating the proportion released is not the weight of triclosan in the entirety of these sheets, but only in the parts facing the pouch such as 14. Here, these parts weigh approximately 1.835 g (determined after cutting out and weighing). As there are 29 mg of triclosan for 100 g of sheet. The amount of triclosan contained in these parts is approximately 532 μg.
# [1] = Extender A (without antibiotic)
# [2] = Extender B (containing an antibiotic)
smiles,measurement,setting,value
Oc1cc(Cl)ccc1Oc1ccc(Cl)cc1Cl [triclosan],Amount of triclosan released into the dose,[1],2.7 µg
same,Proportion of triclosan released into the dose,[1],0.5%
same,Amount of triclosan released into the dose,[2],1.9 µg
same,Proportion of triclosan released into the dose,[2],0.35%
same,amounts released into the dilution extenders,comment on the release results,around 1%
